From patent US20240261271A1, “APPLICATION OF HYDRONIDONE IN PREPARATION OF DRUG FOR TREATING OR PREVENTING CHRONIC HEPATITIS B WITH LIVER FIBROSIS” (priority 2021, published 2024)
Several values for one entry are separate records, joined by “and”; a condition that tells them apart may be missing. Identical values can stand only once.

Tested on: chronic hepatitis B with hepatic fibrosis
Assay: Phase II clinical study: hepatic fibrosis Ishak score by liver biopsy, before and after 52 weeks of treatment on entecavir basic treatment
Format: in vivo, human
Settings: for Rate difference (C-D) % and 95% CI, Ishak score decreased by ≥1: 180 mg group minus 270 mg group; for Hepatic fibrosis Ishak score, Mean (SD) / Hepatic fibrosis Ishak score, Median / Ishak score 0 point, n(%) / Ishak score 1 point, n(%) / Ishak score 2 points, n(%) / Ishak score 3 points, n(%) / Ishak score 4 points, n(%) / Ishak score 5 points, n(%) / Ishak score 6 points, n(%) / Progressive Ishak score (increases by ≥1 compared with the baseline) / Reversed Ishak score (decreases by ≥1 point compared with the baseline) / Stable Ishak score (unchanged compared with the baseline): 52 weeks of treatment
Procedure: This is a randomized, double-blind, placebo-controlled, multicenter, and dose-finding phase II clinical study with foundational treatment. In the clinical trial, three different dose test groups and a placebo control group were set on the basis of the entecavir capsule antiviral treatment, and the planned sample amount of each group was 60 cases, totaling 240 cases. The three dose test groups were 180 mg group, 270 mg group, and 360 mg group, respectively. […]

[1] = 180 mg group, FAS, 52 weeks of treatment vs baseline, all subjects
[2] = 180 mg group, FAS, all subjects
[3] = 180 mg group, FAS, baseline Ishak score ≥3
[4] = 180 mg group, FAS, screening period-follow-up 15 (52 weeks), baseline Ishak score ≥3
[5] = 180 mg group, PPS, 52 weeks of treatment vs baseline, all subjects
[6] = 180 mg group, PPS, all subjects
[7] = 180 mg group, PPS, baseline Ishak score ≥3
[8] = 180 mg group, PPS, screening period-follow-up 15 (52 weeks), baseline Ishak score ≥3
[9] = 270 mg group, FAS, 52 weeks of treatment vs baseline, all subjects
[10] = 270 mg group, FAS, all subjects
[11] = 270 mg group, FAS, baseline Ishak score ≥3
[12] = 270 mg group, FAS, screening period-follow-up 15 (52 weeks), baseline Ishak score ≥3
[13] = 270 mg group, PPS, 52 weeks of treatment vs baseline, all subjects
[14] = 270 mg group, PPS, all subjects
[15] = 270 mg group, PPS, baseline Ishak score ≥3

Cc1ccc(=O)n(-c2ccc(O)cc2)c1 [hydronidone]
Rate difference (C-D) % and 95% CI, Ishak score decreased by ≥1 (FAS, 52 weeks, all subjects): −15.62(−35.03, 5.65) %
Rate difference (C-D) % and 95% CI, Ishak score decreased by ≥1 (FAS, 52 weeks, baseline Ishak score ≥3): −10.12(−34.40, 15.62) %
Rate difference (C-D) % and 95% CI, Ishak score decreased by ≥1 (PPS, 52 weeks, all subjects): −18.49(−38.82, 4.38) %
Rate difference (C-D) % and 95% CI, Ishak score decreased by ≥1 (PPS, 52 weeks, baseline Ishak score ≥3): −12.91(−37.46, 13.45) %
Ishak score decreased by <1, n(%) [1]: 25(59.52) n(%)
Ishak score decreased by ≥1, n(%) [1]: 17 (40.48%) n(%) and 17(40.48) n(%)
Hepatic fibrosis Ishak score, Mean (SD) [2]: 2.71(1.88)
Hepatic fibrosis Ishak score, Median [2]: 2.00
Ishak score 0 point, n(%) [2]: 3(7.14) n(%)
Ishak score 1 point, n(%) [2]: 12(28.57) n(%)
Ishak score 2 points, n(%) [2]: 8(19.05) n(%)
Ishak score 3 points, n(%) [2]: 4(9.52) n(%)
Ishak score 4 points, n(%) [2]: 5(11.90) n(%)
Ishak score 5 points, n(%) [2]: 6(14.29) n(%)
Ishak score 6 points, n(%) [2]: 4(9.52) n(%)
Progressive Ishak score (increases by ≥1 compared with the baseline) [2]: 7 (16.67%) n(%) and 7(16.67) n(%)
Reversed Ishak score (decreases by ≥1 point compared with the baseline) [2]: 17(40.48) n(%)
Stable Ishak score (unchanged compared with the baseline) [2]: 18 (42.86%) n(%) and 18(42.86) n(%)
Ishak score 0 point, n(%) [3]: 1(4.17) n(%)
Ishak score 1 point, n(%) [3]: 4(16.67) n(%)
Ishak score 2 points, n(%) [3]: 1(4.17) n(%)
Ishak score 3 points, n(%) [3]: 3(12.50) n(%)
Ishak score 4 points, n(%) [3]: 5(20.83) n(%)
Ishak score 5 points, n(%) [3]: 6(25.00) n(%)
Ishak score 6 points, n(%) [3]: 4(16.67) n(%)
Ishak score change, Baseline-52 weeks of treatment, Mean (SD) [2]: 0.43(1.25)
Ishak score change, Baseline-52 weeks of treatment, Median [2]: 0.00
Ishak score decreased by <1, n(%) [4]: 11(45.83) n(%)
Ishak score decreased by ≥1, n(%) [4]: 13(54.17) n(%)
Ishak score decreased by <1, n(%) [5]: 19(52.78) n(%)
Ishak score decreased by ≥1, n(%) [5]: 17 (47.22%) n(%) and 17(47.22) n(%)
Hepatic fibrosis Ishak score, Mean (SD) [6]: 2.67(1.88)
Hepatic fibrosis Ishak score, Median [6]: 2.00
Ishak score 0 point, n(%) [6]: 3(8.33) n(%)
Ishak score 1 point, n(%) [6]: 11(30.56) n(%)
Ishak score 2 points, n(%) [6]: 5(13.89) n(%)
Ishak score 3 points, n(%) [6]: 4(11.11) n(%)
Ishak score 4 points, n(%) [6]: 5(13.89) n(%)
Ishak score 5 points, n(%) [6]: 5(13.89) n(%)
Ishak score 6 points, n(%) [6]: 3(8.33) n(%)
Progressive Ishak score (increases by ≥1 compared with the baseline) [6]: 7 (19.44%) n(%) and 7(19.44) n(%)
Reversed Ishak score (decreases by ≥1 point compared with the baseline) [6]: 17(47.22) n(%)
Stable Ishak score (unchanged compared with the baseline) [6]: 12 (33.33%) n(%) and 12(33.33) n(%)
Ishak score 0 point, n(%) [7]: 1(4.55) n(%)
Ishak score 1 point, n(%) [7]: 4(18.18) n(%)
Ishak score 2 points, n(%) [7]: 1(4.55) n(%)
Ishak score 3 points, n(%) [7]: 3(13.64) n(%)
Ishak score 4 points, n(%) [7]: 5(22.73) n(%)
Ishak score 5 points, n(%) [7]: 5(22.73) n(%)
Ishak score 6 points, n(%) [7]: 3(13.64) n(%)
Ishak score change, Baseline-52 weeks of treatment, Mean (SD) [6]: 0.50(1.34)
Ishak score change, Baseline-52 weeks of treatment, Median [6]: 0.00
Ishak score decreased by <1, n(%) [8]: 9(40.91) n(%)
Ishak score decreased by ≥1, n(%) [8]: 13(59.09) n(%)
Ishak score decreased by ≥1, n(%) (270 mg group + 360 mg group, FAS, 52 weeks, baseline Ishak score = 6 (cirrhosis)): 9(90.00) n(%)
Ishak score decreased by ≥1, n(%) (270 mg group + 360 mg group, FAS, 52 weeks, baseline Ishak score ≥3 (significant fibrosis)): 35(61.40) n(%)
Ishak score decreased by ≥1, n(%) (270 mg group + 360 mg group, FAS, 52 weeks, baseline Ishak score ≥4 (progressive fibrosis)): 22(64.71) n(%)
Ishak score decreased by ≥1, n(%) (270 mg group + 360 mg group, FAS, 52 weeks, baseline Ishak score ≥5 (early cirrhosis)): 17(65.38) n(%)
Ishak score decreased by ≥1, n(%) (270 mg group + 360 mg group, PPS, 52 weeks, baseline Ishak score = 6 (cirrhosis)): 9(90.00) n(%)
Ishak score decreased by ≥1, n(%) (270 mg group + 360 mg group, PPS, 52 weeks, baseline Ishak score ≥3 (significant fibrosis)): 35(70.00) n(%)
Ishak score decreased by ≥1, n(%) (270 mg group + 360 mg group, PPS, 52 weeks, baseline Ishak score ≥4 (progressive fibrosis)): 22(70.97) n(%)
Ishak score decreased by ≥1, n(%) (270 mg group + 360 mg group, PPS, 52 weeks, baseline Ishak score ≥5 (early cirrhosis)): 17(70.83) n(%)
Ishak score decreased by <1, n(%) [9]: 18(43.90) n(%)
Ishak score decreased by ≥1, n(%) [9]: 23 (56.10%) n(%) and 23(56.10) n(%)
Hepatic fibrosis Ishak score, Mean (SD) [10]: 2.64(1.74)
Hepatic fibrosis Ishak score, Median [10]: 2.00
Ishak score 0 point, n(%) [10]: 2(5.13) n(%)
Ishak score 1 point, n(%) [10]: 12(30.77) n(%)
Ishak score 2 points, n(%) [10]: 7(17.95) n(%)
Ishak score 3 points, n(%) [10]: 5(12.82) n(%)
Ishak score 4 points, n(%) [10]: 5(12.82) n(%)
Ishak score 5 points, n(%) [10]: 6(15.38) n(%)
Ishak score 6 points, n(%) [10]: 2(5.13) n(%)
Progressive Ishak score (increases by ≥1 compared with the baseline) [10]: 4 (9.76%) n(%) and 4(9.76) n(%)
Reversed Ishak score (decreases by ≥1 point compared with the baseline) [10]: 23(56.10) n(%)
Stable Ishak score (unchanged compared with the baseline) [10]: 14 (34.15%) n(%) and 14(34.15) n(%)
Ishak score 0 point, n(%) [11]: 2(7.14) n(%)
Ishak score 1 point, n(%) [11]: 4(14.29) n(%)
Ishak score 2 points, n(%) [11]: 4(14.29) n(%)
Ishak score 3 points, n(%) [11]: 5(17.86) n(%)
Ishak score 4 points, n(%) [11]: 5(17.86) n(%)
Ishak score 5 points, n(%) [11]: 6(21.43) n(%)
Ishak score 6 points, n(%) [11]: 2(7.14) n(%)
Ishak score change, Baseline-52 weeks of treatment, Mean (SD) [10]: 0.78(1.11)
Ishak score change, Baseline-52 weeks of treatment, Median [10]: 1.00
Ishak score decreased by <1, n(%) [12]: 10(35.71) n(%)
Ishak score decreased by ≥1, n(%) [12]: 18(64.29) n(%)
Ishak score decreased by <1, n(%) [13]: 12(34.29) n(%)
Ishak score decreased by ≥1, n(%) [13]: 23 (65.71%) n(%) and 23(65.71) n(%)
Hepatic fibrosis Ishak score, Mean (SD) [14]: 2.60(1.77)
Hepatic fibrosis Ishak score, Median [14]: 2.00
Ishak score 0 point, n(%) [14]: 2(5.71) n(%)
Ishak score 1 point, n(%) [14]: 11(31.43) n(%)
Ishak score 2 points, n(%) [14]: 7(20.00) n(%)
Ishak score 3 points, n(%) [14]: 3(8.57) n(%)
Ishak score 4 points, n(%) [14]: 5(14.29) n(%)
Ishak score 5 points, n(%) [14]: 5(14.29) n(%)
Ishak score 6 points, n(%) [14]: 2(5.71) n(%)
Progressive Ishak score (increases by ≥1 compared with the baseline) [14]: 4 (11.43%) n(%) and 4(11.43) n(%)
Reversed Ishak score (decreases by ≥1 point compared with the baseline) [14]: 23(65.71) n(%)
Stable Ishak score (unchanged compared with the baseline) [14]: 8 (22.86%) n(%) and 8(22.86) n(%)
Ishak score 0 point, n(%) [15]: 2(8.00) n(%)
Ishak score 1 point, n(%) [15]: 4(16.00) n(%)
Ishak score 2 points, n(%) [15]: 4(16.00) n(%)
Ishak score 3 points, n(%) [15]: 3(12.00) n(%)
